Experimental findings from ChEMBL document CHEMBL3301451, “MMV Malaria Box gametocyte functional viability assay screening” are described below.

Assay type in all cases: functional
Common to all, as to design: concentration or dose not given beside the values

Assay [1] deals with Plasmodium berghei. The assay can be described thus: MMV: P. berghei-infected blood was withdrawn from mice by cardiac pucture before being immediately added to ookinete culture medium containing test compounds. 26 hr later, GFP-positive ookinetes were identified and counted by automated microscopy. All compounds were tested in 4 independent experiments and data presented here is the mean.

In assay [2] the test system is Plasmodium falciparum. Description: MMV: P. falciparum NF54 functionally mature Stage V gametocytes were incubated for 24 hr in the presence of the test compounds. Gamete formation was then triggered by addition of 2uM xantheurenic acid and temperature decrease to ~20C. Male gamete exflagellation was recorded and analysed by automated microscopy after 20 min. All compounds were tested in 4 independent experiments and data presented here is the mean.

Assay [3] concerns Plasmodium falciparum. The assay can be described thus: MMV: P. falciparum NF54 functionally mature Stage V gametocytes were incubated for 24 hr in the presence of the test compounds. Gamete formation was then triggered by addition of 2uM xantheurenic acid and temperature decrease to ~20C. Female gamete formation was recorded 24 hr later by automated microscopy detection of surface labelling of female gametes with a Cy3-conjugated antibody reactive to Pfs25. All compounds were tested in 4 independent experiments and data presented here is the mean. Conditions: NF54, 24 h.

As for `COc1ccc2nc(C)cc(Nc3ccccc3O)c2c1`, the inhibition was -6.855% in assay [1], -8.38% in assay [2] and -42% in assay [3].

As to `CC(C)CNC(=O)c1c(N)n(CCc2ccccc2F)c2nc3ccccc3nc12`, the inhibition in assay [1] was -6.274%; in assay [2], 24.1%; in assay [3] it was -24.2%.

For the molecule `Cc1cccc(-n2ncc3c(O)nc(-n4nc(C)cc4NC(=O)c4cc5ccccc5o4)nc32)c1`, the inhibition is -5.778% in assay [1], 34.4% in assay [2] and -18.6% in assay [3].

With `Oc1ccccc1CN1CCC2(CCCN(Cc3ccccc3F)C2)C1` (configuration not stated), the inhibition in assay [1] was -6.641%; in assay [2], 22.9%; in assay [3], -21.4%.

Turning to `COc1ccc(-c2nc(NC(=O)CS(=O)(=O)c3ccc(F)cc3)sc2C)cc1`, the inhibition was -6.755% in assay [1], -20.9% in assay [2] and 7.25% in assay [3].

`COCCNCC(O)Cn1c2ccc(Cl)cc2c2cc(Cl)ccc21` (configuration not stated): the inhibition in assay [1] is -6.812%; in assay [2] it was -2.59%; in assay [3], -7.62%.

With `COc1ccc(N2CCN(C(CNC(=O)C3CCCCC3)c3ccc4c(c3)OCO4)CC2)cc1` (configuration not stated), the inhibition in assay [1] is -5.593%; in assay [2], 29.7%; in assay [3] it was -22.9%.

As to `COc1ccc2nc(C)cc(Nc3cccc(O)c3)c2c1.Cl`, the inhibition was -5.92% in assay [1], -12.1% in assay [2] and -5.48% in assay [3].

For the molecule `Oc1ccc(-c2nc(-c3ccc4oc5ccc(-c6[nH]c(-c7ccc(O)cc7)nc6-c6ccccc6)cc5c4c3)c(-c3ccccc3)[nH]2)cc1`, the inhibition was -6.694% in assay [1], 3.81% in assay [2] and -4.38% in assay [3].

On to `Cc1[nH]c(-c2ccc(F)cc2)cc1C(=O)NC1CCN(Cc2ccccc2)CC1`, for which the inhibition is -7.189% in assay [1], 7.06% in assay [2] and -3.53% in assay [3].

Take `COCCNC(=O)c1ccc(OC2CCN(Cc3ccc(F)c(F)c3)CC2)c(Cl)c1`: the inhibition in assay [1] is -5.71%; in assay [2] it was 16.4%; in assay [3], -14.3%.

Turning to `Brc1ccc(Nc2nc3ccccc3nc2Nc2ccc(Br)cc2)cc1`, the values for the inhibition in assay [1], in assay [2] and in assay [3] were -6.195%, 18.1% and -0.532%, respectively.

For `Cc1cc(Nc2ccc(C)c(Cl)c2)n2nc(C(F)(F)F)nc2n1`, the inhibition in assay [1] is -5.541%; in assay [2] it was 17.1%; in assay [3], -44.8%.

For the molecule `CCCCOC(=O)c1ccc(Nc2cc(C)nc3ccc(OC)cc23)cc1`, the figures for the inhibition in assay [1], in assay [2] and in assay [3] were -4.495%, -6.31% and -6.56%, respectively.

As to `CC(NCc1ccccc1)c1cc(Cl)ccc1O` (configuration not stated), the inhibition in assay [1] was -6.231%; in assay [2], -5.35%; in assay [3], -17.3%.

Consider `Cc1cc(Nc2ccc(OCc3ccccc3)cc2)nc2cc(O)ccc12`, for which the inhibition in assay [1] is -6.891%; in assay [2] it was 32.7%; in assay [3] it was 6.66%.

Regarding `COc1cc(-c2nc(-c3ccc(Sc4ccccc4)cc3)c(-c3ccccc3)[nH]2)cc(OC)c1O`, the inhibition in assay [1] was -6.549%; in assay [2], 13.5%; in assay [3] it was -13.7%.

As to `Oc1ccc(Cl)cc1CNc1nc2ccccc2[nH]1`, the inhibition in assay [1] was -5.247%; in assay [2], 53.3%; in assay [3] it was -26.8%.

`O=C(Nc1ccc(CN2CCOCC2)cc1)c1ccc(-c2ccc(Br)cc2)o1`: the inhibition was -6.99% in assay [1], 14.4% in assay [2] and -17.9% in assay [3].

As for `Cc1ccccc1OCCSc1nc2ccc(NC(=O)c3cccs3)cc2s1`, the inhibition in assay [1] was -6.357%; in assay [2] it was 11.6%; in assay [3] it was -2.71%.

Turning to `c1ccc2c(NCCc3c[nH]c4ccccc34)c3ccccc3nc2c1`, the results for the inhibition in assay [1], in assay [2] and in assay [3] were -6.399%, 5.59% and 2.57%, respectively.

On to `Oc1c(C(Nc2ccccn2)c2cccc(Oc3ccccc3)c2)ccc2cccnc12` (configuration not stated), for which the inhibition is -4.794% in assay [1], -38.1% in assay [2] and -17.6% in assay [3].

With `Cc1ccc(Nc2nc(N)c3ccccc3n2)cc1Cl`, the figures for the inhibition in assay [1], in assay [2] and in assay [3] were -5.317%, -51.8% and -26.1%, respectively.

Regarding `Cc1ccc(CN2CCC(C(=O)Nc3ccc(-c4cc5ccccc5[nH]4)cc3)CC2)o1`, the inhibition in assay [1] was -4.815%; in assay [2] it was 7.05%; in assay [3] it was -19.7%.

For the molecule `Cc1ccc2nc(C)cc(Nc3cccc(C(F)(F)F)c3)c2c1.Cl`, the results for the inhibition in assay [1], in assay [2] and in assay [3] were -4.574%, -27.5% and -16.2%, respectively.

As to `CC(C)c1ccc(CNCC(O)c2ccccc2)cc1.Cl` (configuration not stated), the values for the inhibition in assay [1], in assay [2] and in assay [3] were -4.617%, 4.92% and -2.85%, respectively.

With `CC(C)(C)c1ccc(C(=O)Nc2c3c(nn2-c2cccc(Cl)c2)CSC3)cc1`, the inhibition is -7.14% in assay [1], 25.7% in assay [2] and -5.95% in assay [3].

For the molecule `CC1CC(C)CN(C(=O)c2ccc(Cl)cc2Cl)C1` (configuration not stated), the inhibition in assay [1] is -6.319%; in assay [2] it was 30.8%; in assay [3], -18.2%.

For the molecule `CCOc1ccc(-c2nonc2NC(=O)c2cccc(C)c2)cc1OCC`, the inhibition in assay [1] is -6.946%; in assay [2], 52.4%; in assay [3], -7.75%.

As to `COc1ccc(N2CCN(C(CNC(=O)CC(C)(C)C)c3ccc4c(c3)OCO4)CC2)cc1` (configuration not stated), the inhibition is -5.344% in assay [1], 1.8% in assay [2] and -24.8% in assay [3].

In the case of `COc1ccc(C2N(C)c3ccccc3N2C)cc1`, the inhibition in assay [1] is -4.492%; in assay [2] it was 10.4%; in assay [3], 24.3%.

For the molecule `CCOc1ccc(/C=C/c2nc(=O)c3ccccc3o2)cc1`, the inhibition in assay [1] is -4.823%; in assay [2], 23.7%; in assay [3], -30.2%.

In the case of `O=C(Nc1ccccc1O)c1ccc(-c2ccc(Cl)cc2Cl)o1`, the inhibition in assay [1] was -6.243%; in assay [2], 18.9%; in assay [3], -20.6%.

As for `CCOC(=O)C1(Cc2ccccc2)CCN(Cc2cccc(OC)c2O)CC1`, the inhibition in assay [1] was -6.801%; in assay [2], -10.2%; in assay [3], -9.84%.

Take `CCCCc1ccc(NS(=O)(=O)c2cc3c4c(c2)CCN4C(=O)CC3)cc1`: the inhibition in assay [1] was -6.551%; in assay [2], 15.5%; in assay [3] it was -27.1%.

Turning to `CCCOCc1cc(CN2CCN(c3cccc(Cl)c3)CC2)c(O)c2ncccc12`, the inhibition was -5.698% in assay [1], 19% in assay [2] and 14.3% in assay [3].

Consider `O=C(Cc1ccccc1)NC(c1ccc(Cl)cc1)c1c(O)ccc2ccccc12` (configuration not stated), for which the inhibition in assay [1] was -6.482%; in assay [2] it was 54.1%; in assay [3], 10.7%.

For the molecule `CCOc1ccc(-c2nc(NC(=O)c3cccc(S(C)(=O)=O)c3)sc2C)cc1`, the inhibition is -6.261% in assay [1], 0.81% in assay [2] and -21% in assay [3].

With `COc1ccc(-c2nc3cc(Cc4ccc5[nH]c(-c6ccc(OC)cc6)nc5c4)ccc3[nH]2)cc1`, the inhibition in assay [1] was -5.308%; in assay [2] it was 28.3%; in assay [3], -12.5%.

On to `c1ccc(CNc2nc(Nc3ccccc3)nc3ccccc23)cc1`, for which the inhibition in assay [1] is -4.491%; in assay [2], -50.6%; in assay [3] it was -29.2%.

As for `Cc1cccc(N2C(=O)C3C(C2=O)C2(c4ccccc4)C(=O)C3(c3ccccc3)C(c3ccc4c(c3)OCO4)=C2c2ccc3c(c2)OCO3)c1` (configuration not stated), the inhibition is -6.32% in assay [1], 32.3% in assay [2] and -2.01% in assay [3].

As for `CC1=C(CC(=O)c2cccc([N+](=O)[O-])c2)C(=O)c2ccccc2C1=O`, the inhibition is -6.724% in assay [1], -2.58% in assay [2] and -17.4% in assay [3].

With `CCCCCCOC(=O)C1=C(C)NC(=O)NC1c1ccccc1F` (configuration not stated), the inhibition is -7.086% in assay [1], 11.4% in assay [2] and -1.36% in assay [3].

`COc1ccc(C(=O)C2CC2c2ccc(Cl)cc2)cc1` (configuration not stated): the inhibition is -7.167% in assay [1], 19.4% in assay [2] and -10.6% in assay [3].

In the case of `Cc1cc(N2CCN(C3CCCC3)CC2)n2c(nc3ccccc32)c1C#N`, the inhibition in assay [1] was -5.169%; in assay [2], 6.61%; in assay [3], -12.2%.

`CCN(CC)CCCNc1nc(-c2ccc(Cl)cc2)nc2ccccc12`: the inhibition was -4.546% in assay [1], -49.2% in assay [2] and -19.2% in assay [3].

For `CCOC(=O)c1cnc2ccc(OC)cc2c1NCc1ccccc1`, the inhibition in assay [1] was -6.823%; in assay [2] it was -12.8%; in assay [3] it was -40.9%.

For `C=C(C)CCC(C)N1CCC(N2CCC(C(=O)NCCc3ccccc3)CC2)CC1` (configuration not stated), the results for the inhibition in assay [1], in assay [2] and in assay [3] were -5.335%, 9.7% and -6.85%, respectively.

Consider `CCCCc1c(CCC)c(=N)c2ccccc2n1C.I`, for which the inhibition was -7.021% in assay [1], -57% in assay [2] and -25.6% in assay [3].
